We go through 34 compounds from PubChem BioAssay AID651650 (Sanford-Burnham Center for Chemical Genomics, 2012).

Active and inactive are the calls of the source.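 The calls were made as follows: active = mean IC50 below 20 µM in each of the two panels, so potent in both; inactive = the rest.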

The assay has as its target Neuropilin-1 (Homo sapiens) (UniProt O14786). The experiment in a line: blockers of CendR peptide binding to NRP-1 – biochemical, FP and AlphaScreen panel, dose response (AID 651650). As to conditions: NRP-1 b1b2 / RPARPAR peptide binding, FP or AlphaScreen. A general note: Alpha assays give light when donor and acceptor beads are brought close together.
[1] abbreviates: AlphaScreen, run 1, individual panel run IC50.
Setting [2] is: FP, run 1, individual panel run IC50.
[3] abbreviates: FP, run 2, individual panel run IC50.

Chain of Neuropilin-1 (Homo sapiens) (O14786 whole entry, looked up): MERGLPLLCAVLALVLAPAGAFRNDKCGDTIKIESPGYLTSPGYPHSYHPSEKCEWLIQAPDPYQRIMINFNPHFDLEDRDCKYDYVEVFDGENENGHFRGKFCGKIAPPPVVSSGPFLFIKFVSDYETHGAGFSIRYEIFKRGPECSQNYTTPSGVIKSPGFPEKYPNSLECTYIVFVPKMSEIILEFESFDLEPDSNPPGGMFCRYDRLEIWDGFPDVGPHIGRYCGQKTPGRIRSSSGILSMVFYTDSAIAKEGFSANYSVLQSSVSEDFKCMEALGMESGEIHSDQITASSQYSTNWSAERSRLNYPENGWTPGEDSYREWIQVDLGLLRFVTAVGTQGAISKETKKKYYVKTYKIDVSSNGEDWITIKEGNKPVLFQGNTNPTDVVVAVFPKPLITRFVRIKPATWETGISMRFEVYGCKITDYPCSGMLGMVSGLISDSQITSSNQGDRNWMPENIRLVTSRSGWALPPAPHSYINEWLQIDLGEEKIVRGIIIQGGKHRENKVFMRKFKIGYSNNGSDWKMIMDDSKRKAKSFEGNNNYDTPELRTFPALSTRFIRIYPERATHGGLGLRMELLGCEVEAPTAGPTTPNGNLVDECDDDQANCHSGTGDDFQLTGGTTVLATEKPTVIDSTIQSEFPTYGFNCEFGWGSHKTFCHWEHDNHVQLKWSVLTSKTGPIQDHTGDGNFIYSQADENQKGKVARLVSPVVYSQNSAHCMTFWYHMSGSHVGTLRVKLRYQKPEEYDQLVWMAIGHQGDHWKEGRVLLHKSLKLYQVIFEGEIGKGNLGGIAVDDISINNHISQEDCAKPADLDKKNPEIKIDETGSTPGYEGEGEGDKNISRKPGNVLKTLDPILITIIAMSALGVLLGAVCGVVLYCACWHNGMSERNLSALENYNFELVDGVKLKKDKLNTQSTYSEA

Broadly, the IC50 is the midpoint of a concentration-inhibition curve. On to `N/C(CSc1ccc(Cl)cc1)=N\S(=O)(=O)c1ccc(Cl)cc1`, for which the IC50 (AlphaScreen, mean of runs) is > 100 µM (inactive); the IC50 under setting [1] was greater than 100 µM; the IC50 (FP, mean of runs) is > 95 µM (inactive); the IC50 under setting [2] was greater than 95 µM; the IC50 under setting [3] is greater than 95 µM.

With `C=CCOc1ccc(C2/C(=C(\O)c3c(C)[nH]c(C(=O)OC)c3C)C(=O)C(=O)N2CCN(C)C)cc1` (stereo not given), the IC50 is, setting by setting: (AlphaScreen, mean of runs) > 100 µM (inactive); under setting [1], greater than 100 µM; (FP, mean of runs) > 95 µM (inactive); under setting [2], greater than 95 µM; under setting [3], greater than 95 µM.

With `COC(=O)C1=C(c2cccc(C#N)c2)C[C@@H]2CC[C@H]1N2C(=O)NCCO`, the IC50 was > 100 µM (inactive) (AlphaScreen, mean of runs); greater than 100 µM under setting [1]; > 95 µM (inactive) (FP, mean of runs); greater than 95 µM under setting [2]; greater than 95 µM under setting [3].

As for `N#Cc1ccc(COC(=O)c2cnc(Cl)c(Cl)c2)cc1`, the IC50 (AlphaScreen, mean of runs) is > 100 µM (inactive); the IC50 under setting [1] is greater than 100 µM; the IC50 (FP, mean of runs) was > 95 µM (inactive); the IC50 under setting [2] was greater than 95 µM; the IC50 under setting [3] was greater than 95 µM.

`CCc1ccc(NC(=O)CCn2nc(C)c(S(=O)(=O)N3CCCCC3)c2C)cc1`: the IC50 by setting is: (AlphaScreen, mean of runs) > 100 µM (inactive); under setting [1], greater than 100 µM; (FP, mean of runs) > 95 µM (inactive); under setting [2], greater than 95 µM; under setting [3], greater than 95 µM.

For the compound `Cc1cc(NC(=O)COC(=O)c2ccc(C)c(C)c2)no1`, the IC50 by setting is: (AlphaScreen, mean of runs) > 100 µM (inactive); under setting [1], greater than 100 µM; (FP, mean of runs) > 95 µM (inactive); under setting [2], greater than 95 µM; under setting [3], greater than 95 µM.

Regarding `Cc1nnc(NC(=O)c2ccccc2C(=O)O)s1`, the IC50 (AlphaScreen, mean of runs) was 16.6 µM; the IC50 under setting [1] came out at 16.6 µM; the IC50 (FP, mean of runs) is > 95 µM (inactive); the IC50 under setting [2] was greater than 95 µM; the IC50 under setting [3] was greater than 95 µM.

As to `COc1ccc([C@H]2/C=C\CN(S(C)(=O)=O)[C@@H](C)C(=O)N2Cc2ccc(F)cc2)cc1`, the IC50 runs as follows: (AlphaScreen, mean of runs) > 100 µM (inactive); under setting [1], greater than 100 µM; (FP, mean of runs) > 95 µM (inactive); under setting [2], greater than 95 µM; under setting [3], greater than 95 µM.

`O=C(NCCCN1CCCCCC1)c1ccc(CS(=O)(=O)Cc2ccccc2F)o1`: the IC50 is, setting by setting: (AlphaScreen, mean of runs) > 100 µM (inactive); under setting [1], greater than 100 µM; (FP, mean of runs) > 95 µM (inactive); under setting [2], greater than 95 µM; under setting [3], greater than 95 µM.

With `O=C(c1ccco1)N1CCN(C(=O)c2ccccc2OC(=O)C23CC4CC(CC(C4)C2)C3)CC1`, the IC50 reads like this: (AlphaScreen, mean of runs) 0.965 µM; under setting [1], 0.965 µM; (FP, mean of runs) > 95 µM (inactive); under setting [2], greater than 95 µM; under setting [3], greater than 95 µM.

As to `COC(=O)N[C@@H]1C[C@H]2[C@@H]3CC[C@H]4C[C@@H](OC)CC[C@]4(C)[C@H]3CC[C@]12C`, where the note is “AlphaScreen, mean of runs”, the IC50 entry was “inactive”. Besides, the IC50 by setting is: under setting [1], 69.5 µM; (FP, mean of runs) > 95 µM (inactive); under setting [2], greater than 95 µM; under setting [3], greater than 95 µM.

Regarding `O=C(COC(=O)c1ccccn1)c1ccc([N+](=O)[O-])cc1`, the IC50 is > 100 µM (inactive) (AlphaScreen, mean of runs); greater than 100 µM under setting [1]; > 95 µM (inactive) (FP, mean of runs); greater than 95 µM under setting [2]; greater than 95 µM under setting [3].

Turning to `CCCS(=O)(=O)N1CCC(Cc2ccc(OC)cc2)(C(=O)OCC)CC1`, the IC50 was > 100 µM (inactive) (AlphaScreen, mean of runs); greater than 100 µM under setting [1]; > 95 µM (inactive) (FP, mean of runs); greater than 95 µM under setting [2]; greater than 95 µM under setting [3].

Turning to `O=C(Cn1cccc1C(=O)c1ccccc1)NCCC1=CCCCC1`, the IC50 is, setting by setting: (AlphaScreen, mean of runs) 7.12 µM; under setting [1], 7.12 µM; (FP, mean of runs) > 95 µM (inactive); under setting [2], greater than 95 µM; under setting [3], greater than 95 µM.

Regarding `Cc1ccc(C(=O)N/C(=C\c2ccc(-c3ccccc3[N+](=O)[O-])o2)C(=O)NCCCN2CCOCC2)cc1`, the IC50 was > 100 µM (inactive) (AlphaScreen, mean of runs); greater than 100 µM under setting [1]; > 95 µM (inactive) (FP, mean of runs); greater than 95 µM under setting [2]; greater than 95 µM under setting [3].

Consider `CC(=O)/C(=N\Nc1ccc(Cl)cc1Cl)Sc1cccc2cccnc12`, for which the IC50 (AlphaScreen, mean of runs) was > 100 µM (inactive); the IC50 under setting [1] is greater than 100 µM; the IC50 (FP, mean of runs) is > 95 µM (inactive); the IC50 under setting [2] was greater than 95 µM; the IC50 under setting [3] was greater than 95 µM.

On to `CCn1ncc(Br)c1C(=O)N(C)C12CC3CC(CC(C3)C1)C2`, for which the IC50 is > 100 µM (inactive) (AlphaScreen, mean of runs); greater than 100 µM under setting [1]; > 95 µM (inactive) (FP, mean of runs); greater than 95 µM under setting [2]; greater than 95 µM under setting [3].

For `O=C(c1ncn(Cc2ccccc2)c1C(=O)N1CCc2ccccc2C1)N1CCc2ccccc2C1`, the IC50 by setting is: (AlphaScreen, mean of runs) > 100 µM (inactive); under setting [1], greater than 100 µM; (FP, mean of runs) > 95 µM (inactive); under setting [2], greater than 95 µM; under setting [3], greater than 95 µM.

Regarding `CCOc1ccc(S(=O)(=O)NNC(=O)c2cc3ccccc3o2)cc1`, the IC50 is, setting by setting: (AlphaScreen, mean of runs) > 100 µM (inactive); under setting [1], greater than 100 µM; (FP, mean of runs) > 95 µM (inactive); under setting [2], greater than 95 µM; under setting [3], greater than 95 µM.

With `O=C(Nc1cc(C(F)(F)F)ccc1N1CCCC1)C1CC(=O)N(Cc2ccccc2)C1` (stereo not given), the IC50 (AlphaScreen, mean of runs) is > 100 µM (inactive); the IC50 under setting [1] was greater than 100 µM; the IC50 (FP, mean of runs) was > 95 µM (inactive); the IC50 under setting [2] was greater than 95 µM; the IC50 under setting [3] was greater than 95 µM.

With `CC(C)(C)C(=O)COC(=O)c1cc(-c2ccncc2)nc2ccccc12`, the IC50 is, setting by setting: (AlphaScreen, mean of runs) > 100 µM (inactive); under setting [1], greater than 100 µM; under setting [2], greater than 95 µM; under setting [3], 40.5 µM. Where the note is “FP, mean of runs”, the IC50 result is “inactive”.

As to `COc1ccc(S(=O)(=O)N2CCCCC2)cc1NC(=O)c1c(F)cccc1Cl`, the IC50 is > 100 µM (inactive) (AlphaScreen, mean of runs); greater than 100 µM under setting [1]; > 95 µM (inactive) (FP, mean of runs); greater than 95 µM under setting [2]; greater than 95 µM under setting [3].

`CC(=O)Oc1cc2c(c3ccccc13)CCC2=O`: the IC50 is > 100 µM (inactive) (AlphaScreen, mean of runs); greater than 100 µM under setting [1]; > 95 µM (inactive) (FP, mean of runs); greater than 95 µM under setting [2]; greater than 95 µM under setting [3].

`c1ccc2c(c1)CCCN2Cc1nnnn1CC1CCCO1` (stereo not given): the IC50 entry is, setting by setting: (AlphaScreen, mean of runs) “inactive”; (FP, mean of runs) “inactive”. Moreover, the IC50 runs as follows: under setting [1], 25.8 µM; under setting [2], 33.9 µM; under setting [3], greater than 95 µM.

On to `O=[N+]([O-])c1ccc(Nc2nc(NC3CCCCC3)nc(N3CCCC3)n2)cc1`, for which the IC50 reads like this: (AlphaScreen, mean of runs) > 100 µM (inactive); under setting [1], greater than 100 µM; (FP, mean of runs) > 95 µM (inactive); under setting [2], greater than 95 µM; under setting [3], greater than 95 µM.

On to `O=C(c1ccc(-c2cccc(Cl)c2)o1)N1CCN(c2ccc([N+](=O)[O-])cc2)CC1`, for which the IC50 (AlphaScreen, mean of runs) was > 100 µM (inactive); the concentration for half-maximal inhibition (IC50) under setting [1] is greater than 100 µM; the concentration for half-maximal inhibition (IC50) under setting [2] was greater than 95 µM; the IC50 under setting [3] was found to be 39.5 µM. Also, the IC50 result (FP, mean of runs) is “inactive”.

Consider `Cc1c(CC(=O)O)c(=O)oc2cc(OCc3ccc(F)cc3Cl)ccc12`, for which the IC50 was > 100 µM (inactive) (AlphaScreen, mean of runs); greater than 100 µM under setting [1]; > 95 µM (inactive) (FP, mean of runs); greater than 95 µM under setting [2]; greater than 95 µM under setting [3].

As for `CNc1nc(-c2ccc3c(c2)CCN3C(=O)c2ccccc2F)cs1`, the IC50 is, setting by setting: (AlphaScreen, mean of runs) > 100 µM (inactive); under setting [1], greater than 100 µM; (FP, mean of runs) > 95 µM (inactive); under setting [2], greater than 95 µM; under setting [3], greater than 95 µM.

On to `CCOC(=O)[C@]12CCCC=C1N(CCC1=CCCCC1)C(=O)[C@H](CC(=O)NCC13CC4CC(CC(C4)C1)C3)C2`, for which the IC50 (AlphaScreen, mean of runs) was > 100 µM (inactive); the IC50 under setting [1] is greater than 100 µM; the IC50 (FP, mean of runs) was > 95 µM (inactive); the IC50 under setting [2] was greater than 95 µM; the IC50 under setting [3] is greater than 95 µM.

For `COc1ccc(CCNC(=O)c2c(O)c3cccc4c3n(c2=O)CC4)cc1OC`, the IC50 reads like this: (AlphaScreen, mean of runs) > 100 µM (inactive); under setting [1], greater than 100 µM; (FP, mean of runs) > 95 µM (inactive); under setting [2], greater than 95 µM; under setting [3], greater than 95 µM.

`Cc1onc(-c2ccc(Cl)cc2Cl)c1-c1csc(COc2ccccc2)n1`: the IC50 result (AlphaScreen, mean of runs) was “inactive”. Further, the IC50 runs as follows: under setting [1], 59.1 µM; (FP, mean of runs) > 95 µM (inactive); under setting [2], greater than 95 µM; under setting [3], greater than 95 µM.

Turning to `Cc1ccc(-n2c(-c3ccco3)nc3c(cnn3-c3ccc(C)cc3)c2=O)cc1`, the IC50 was > 100 µM (inactive) (AlphaScreen, mean of runs); greater than 100 µM under setting [1]; 39.7 µM under setting [2]; 36.3 µM under setting [3]. For the same compound, for the setting “FP, mean of runs”, the IC50 result was “inactive”.

Regarding `O=C(O)CSc1nnc(-c2ccc(Cl)cc2Cl)n1-c1ccc(Cl)cc1`, the IC50 result was “inactive” (AlphaScreen, mean of runs) and “inactive” (FP, mean of runs). The IC50 under setting [1] was 39.9 µM, the IC50 under setting [2] is greater than 95 µM and the IC50 under setting [3] came to 34.4 µM.

`NC(=O)CC[C@H](NC(=O)c1ccc(F)cc1)C(=O)N1CCN(Cc2ccc3c(c2)OCO3)CC1`: the IC50 runs as follows: (AlphaScreen, mean of runs) > 100 µM (inactive); under setting [1], greater than 100 µM; (FP, mean of runs) > 95 µM (inactive); under setting [2], greater than 95 µM; under setting [3], greater than 95 µM.
